In patent US8952162B2, “Triazolopyridines as phosphodiesterase inhibitors for treatment of dermal diseases” (Leo Pharma A/S, priority 2008, dated 2015) one finds IC50 data, which are given here for 33 compounds.

Human recombinant PDE4 (Genbank accession no NM—006203), sequence (Q08499 1-673 isoform Q08499-2): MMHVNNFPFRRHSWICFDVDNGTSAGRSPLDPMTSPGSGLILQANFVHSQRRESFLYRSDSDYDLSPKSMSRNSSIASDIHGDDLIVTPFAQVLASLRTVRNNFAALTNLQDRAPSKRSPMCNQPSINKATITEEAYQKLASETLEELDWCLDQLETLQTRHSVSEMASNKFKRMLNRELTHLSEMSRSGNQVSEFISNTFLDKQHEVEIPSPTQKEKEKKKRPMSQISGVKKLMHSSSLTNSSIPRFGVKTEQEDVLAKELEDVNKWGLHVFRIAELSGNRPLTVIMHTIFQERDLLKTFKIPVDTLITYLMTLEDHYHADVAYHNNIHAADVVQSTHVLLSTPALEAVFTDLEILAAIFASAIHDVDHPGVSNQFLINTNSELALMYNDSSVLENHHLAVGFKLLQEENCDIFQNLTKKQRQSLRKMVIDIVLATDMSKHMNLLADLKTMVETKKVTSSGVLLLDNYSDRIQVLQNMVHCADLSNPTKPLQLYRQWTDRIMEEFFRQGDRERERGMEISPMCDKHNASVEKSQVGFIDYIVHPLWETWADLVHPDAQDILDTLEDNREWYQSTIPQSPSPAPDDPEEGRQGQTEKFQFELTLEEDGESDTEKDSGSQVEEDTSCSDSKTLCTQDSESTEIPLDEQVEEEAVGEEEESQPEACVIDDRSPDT

This assay has as its target Human recombinant PDE4 (Genbank accession no NM—006203) (Homo sapiens, UniProt Q08499). In words: PDE4 assay (SPA, cAMP cleavage). Type of assay: biochemical. The conditions noted are these: Example 53; PDE4 assay as in example 52; read-out: PDE4 IC50 range. The procedure: At the end of the incubation, the cleavage of the substrate was evaluated by the binding of the AMP product to SPA beads, which generate chemoluminescence when bound to the radioactive tracer. The AMP product inhibited the binding of the radioactive tracer to the beads, and the luminescent signal was competed.
For orientation: IC50 means the point on the concentration scale where inhibition reaches its midpoint. For `COc1ccc(-c2cccc(C#N)c2)n2nc(C3(CNC(=O)C(C)C)CC3)nc12` [Compound 154, N-{1-[5-(3-Cyano-phenyl)-8-methoxy-[1,2,4]triazolo[1,5-a]pyridin-2-yl]-cyclopropylmethyl}-isobutyramide], the IC50 is below 0.5 µM.

With `COc1ccc(-c2cccc(C#N)c2)n2nc(C3(CNC(=O)OC4CCCC4)CC3)nc12` [Compound 155, {1-[5-(3-Cyano-phenyl)-8-methoxyl-[1,2,4]triazolo[1,5-a]pyridin-2-yl]-cyclopropylmethyl}-carbamic acid cyclopentyl ester], the IC50 is below 0.5 µM.

In the case of `COc1ccc(-c2cccc(C#N)c2)n2nc(C3(CNC(=O)N4CCCC4)CC3)nc12` [Compound 156, Pyrrolidine-1-carboxylic acid {1-[5-(3-cyano-phenyl)-8-methoxy-[1,2,4]triazolo[1,5-a]pyridin-2-yl]-cyclopropylmethyl}-amide], the IC50 is below 0.5 µM.

As for `COc1ccc(C2=NNC(=O)CC2C)n2nc(C3CC3)nc12` (stereo not drawn) [Compound 158, 6-(2-Cyclopropyl-8-methoxyl-[1,2,4]triazolo[1,5-a]pyridin-5-yl)-5-methyl-4,5-dihydro-2H-pyridazin-3-one], the IC50 was in the range of 0.5 to 1 µM.

Take `COc1ccc(-c2cncc(C#N)c2)n2nc(C3CC3)nc12` [Compound 159, 5-(2-Cyclopropyl-8-methoxy-[1,2,4]triazolo[1,5-a]pyridin-5-yl)-nicotinonitrile]: the IC50 was below 0.5 µM.

For `COc1ccc(-c2ccc(C#N)c(C)c2)n2nc(C3CC3)nc12` [Compound 161, 4-(2-Cyclopropyl-8-methoxyl-[1,2,4]triazolo[1,5-a]pyridin-5-yl)-2-methyl-benzonitrile], the IC50 was below 0.5 µM.

Regarding `COc1ccc(-c2cc(F)cc(C#N)c2)n2nc(C3CC3)nc12` [Compound 164, 3-(2-Cyclopropyl-8-methoxy-[1,2,4]triazolo[1,5-a]pyridin-5-yl)-5-fluoro-benzonitrile], the IC50 is below 0.5 µM.

For the compound `COc1ccc(-c2ccc(C#N)c(F)c2)n2nc(C3CC3)nc12` [Compound 165, 4-(2-Cyclopropyl-8-methoxyl-[1,2,4]-triazolo[1,5-a]pyridin-5-yl)-2-fluoro-benzonitrile], the IC50 was below 0.5 µM.

Consider `COc1cc(-c2ccc(OC)c3nc(C4CC4)nn23)ccc1C#N` [Compound 166, 4-(2-Cyclopropyl-8-methoxy-[1,2,4]triazolo[1,5-a]pyridin-5-yl)-2-methoxy-benzonitrile], for which the IC50 was below 0.5 µM.

Consider `COc1ccc(-c2cc(C#N)cc(CO)c2)n2nc(C3CC3)nc12` [Compound 168, 3-(2-Cyclopropyl-8-methoxy-[1,2,4]triazolo[1,5-a]pyridin-5-yl)-5-hydroxymethyl-benzonitrile], for which the IC50 was below 0.5 µM.

On to `COc1cc(C#N)cc(-c2ccc(OC)c3nc(C4CC4)nn23)c1` [Compound 169, 3-(2-Cyclopropyl-8-methoxy-[1,2,4]triazolo[1,5-a]pyridin-5-yl)-5-methoxy-benzonitrile], for which the IC50 is below 0.5 µM.

Consider `COc1ccc(-c2ccc3c(c2)CNC3=O)n2nc(C3CC3)nc12` [Compound 171, 5-(2-Cyclopropyl-8-methoxy-[1,2,4]triazolo[1,5-a]pyridin-5-yl)-2,3-dihydro-isoindol-1-one], for which the half-maximal inhibitory concentration (IC50) is below 0.5 µM.

Take `COc1ccc(-c2cccc3c2CCC3=O)n2nc(C3(C(=O)NCc4ccccc4)CC3)nc12` [Compound 172, 1-[8-Methoxy-5-(1-oxo-indan-4-yl)-[1,2,4]triazolo[1,5-a]pyridin-2-yl]-cyclopropanecarboxylic acid benzylamide]: the IC50 was below 0.5 µM.

On to `COc1ccc(-c2cncc(C#N)c2)n2nc(C3(C(=O)NCc4ccccc4)CC3)nc12` [Compound 173, 1-[5-(5-Cyano-pyridin-3-yl)-8-methoxy-[1,2,4]triazolo[1,5-a]pyridin-2-yl]-cyclopropanecarboxylic acid benzylamide], for which the IC50 is below 0.5 µM.

`COc1cc(-c2ccc(OC)c3nc(C4(C(=O)NCC5CCCCC5)CC4)nn23)ccc1C#N` [Compound 174, 1-[5-(4-Cyano-3-methoxy-phenyl)-8-methoxy-[1,2,4]triazolo[1,5-a]pyridin-2-yl]-cyclopropanecarboxylic acid cyclohexylmethyl-amide]: the IC50 was below 0.5 µM.

As for `COc1cc(-c2ccc(OC)c3nc(C4(C(=O)NC(C)C)CC4)nn23)ccc1C#N` [Compound 175, 1-[5-(4-Cyano-3-methoxy-phenyl)-8-methoxy-[1,2,4]triazolo[1,5-a]pyridin-2-yl]-cyclopropanecarboxylic acid isopropylamide], the IC50 was below 0.5 µM.

As for `COc1ccc(-c2cccc3c2CCC3=O)n2nc(C3(C(=O)NCC4CCCCC4)CC3)nc12` [Compound 176, 1-[8-Methoxy-5-(1-oxo-indan-4-yl)-[1,2,4]triazolo[1,5-a]pyridin-2-yl]-cyclopropanecarboxylic acid cyclohexylmethyl-amide], the IC50 was below 0.5 µM.

Consider `COc1cc(-c2ccc(OC)c3nc(C4(C(=O)NCCS(C)(=O)=O)CC4)nn23)ccc1C#N` [Compound 177, 1-[5-(4-Cyano-3-methoxy-phenyl)-8-methoxy-[1,2,4]triazolo[1,5-a]pyridin-2-yl]-cyclopropanecarboxylic acid (2-methanesulfonyl-ethyl)-amide], for which the IC50 is below 0.5 µM.

As for `COc1cc(-c2ccc(OC)c3nc(C4(C(=O)NCc5ccccc5)CC4)nn23)ccc1C#N` [Compound 178, 1-[5-(4-Cyano-3-methoxy-phenyl)-8-methoxy-[1,2,4]triazolo[1,5-a]pyridin-2-yl]-cyclopropanecarboxylic acid benzylamide], the IC50 is below 0.5 µM.

As for `COc1ccc(-c2ccc3c(c2)COC3=O)n2nc(C3(C(=O)NCc4ccccc4)CC3)nc12` [Compound 179, 1-[8-Methoxy-5-(1-oxo-1,3-dihydro-isobenzofuran-5-yl)-[1,2,4]triazolo[1,5-a]pyridin-2-yl]-cyclopropanecarboxylic acid benzylamide], the IC50 was below 0.5 µM.

For `COc1ccc(-c2cccc3c2CCC3=O)n2nc(C3(C(=O)NC(C)C)CC3)nc12` [Compound 180, 1-[8-Methoxy-5-(1-oxo-indan-4-yl)-[1,2,4]triazolo[1,5-a]pyridin-2-yl]-cyclopropanecarboxylic acid isopropylamide], the IC50 was below 0.5 µM.

Take `COc1ccc(-c2ccc3c(c2)CCC3=O)n2nc(C3(C(=O)NC(C)C)CC3)nc12` [Compound 181, 1-[8-Methoxy-5-(1-oxo-indan-5-yl)-[1,2,4]triazolo[1,5-a]pyridin-2-yl]-cyclopropanecarboxylic acid isopropylamide]: the IC50 is below 0.5 µM.

In the case of `COc1ccc(-c2ccc3c(c2)CCC3=O)n2nc(C3(C(=O)NCc4ccccc4)CC3)nc12` [Compound 182, 1-[8-Methoxy-5-(1-oxo-indan-5-yl)-[1,2,4]triazolo[1,5-a]pyridin-2-yl]-cyclopropanecarboxylic acid benzylamide], the 50% inhibitory concentration (IC50) is below 0.5 µM.

As to `COc1ccc(-c2cccc3c2CCC3=O)n2nc(C3(C(=O)NCCS(C)(=O)=O)CC3)nc12` [Compound 183, 1-[8-Methoxy-5-(1-oxo-indan-4-yl)-[1,2,4]triazolo[1,5-a]pyridin-2-yl]-cyclopropanecarboxylic acid (2-methanesulfonyl-ethyl)-amide], the IC50 was below 0.5 µM.

Regarding `COc1ccc(-c2ccc3c(c2)CCC3=O)n2nc(C3(C(=O)NCCS(C)(=O)=O)CC3)nc12` [Compound 184, 1-[8-Methoxy-5-(1-oxo-indan-5-yl)-[1,2,4]triazolo[1,5-a]pyridin-2-yl]-cyclopropanecarboxylic acid (2-methanesulfonyl-ethyl)-amide], the IC50 is below 0.5 µM.

On to `COc1ccc(-c2cncc(C#N)c2)n2nc(C3(C(=O)NCC4CCCCC4)CC3)nc12` [Compound 185, 1-[5-(5-Cyano-pyridin-3-yl)-8-methoxy-[1,2,4]triazolo[1,5-a]pyridin-2-yl]-cyclopropanecarboxylic acid cyclohexylmethyl-amide], for which the IC50 is below 0.5 µM.

In the case of `COc1ccc(-c2cncc(C#N)c2)n2nc(C3(C(=O)NCCS(C)(=O)=O)CC3)nc12` [Compound 186, 1-[5-(5-Cyano-pyridin-3-yl)-8-methoxy-[1,2,4]triazolo[1,5-a]pyridin-2-yl]-cyclopropanecarboxylic acid (2-methanesulfonyl-ethyl)-amide], the IC50 is below 0.5 µM.

Turning to `CCOC(=O)C1(c2nc3c(OC)ccc(-c4cccc(C#N)c4)n3n2)CC1` [Compound 188, 1-[5-(3-Cyano-phenyl)-8-methoxy-[1,2,4]triazolo[1,5-a]pyridin-2-yl]-cyclopropanecarboxylic acid ethyl ester], the IC50 is below 0.5 µM.

Regarding `CCOC(=O)C1(c2nc3c(OC)ccc(-c4cccc(C(C)=O)c4)n3n2)CC1` [Compound 190, 1-[5-(3-Acetyl-phenyl)-8-methoxy-[1,2,4]triazolo[1,5-a]pyridin-2-yl]-cyclopropanecarboxylic acid ethyl ester], the IC50 is below 0.5 µM.

Consider `COc1ccc(-c2cccc(C(C)=O)c2)n2nc(C3(C(=O)O)CC3)nc12` [Compound 193, 1-[5-(3-Acetyl-phenyl)-8-methoxyl-[1,2,4]triazolo[1,5-a]pyridin-2-yl]-cyclopropanecarboxylic acid], for which the IC50 was above 1 µM.

`COc1ccc(-c2cccc(C#N)c2)n2nc(C3(C(=O)NC(C)C)CC3)nc12` [Compound 194, 1-[5-(3-Cyano-phenyl)-8-methoxyl-[1,2,4]triazolo[1,5-a]pyridin-2-yl]-cyclopropanecarboxylic acid isopropylamide]: the IC50 was below 0.5 µM.

As for `COc1ccc(-c2cccc(C#N)c2)n2nc(C3(C(=O)NCc4cccnc4)CC3)nc12` [Compound 195, 1-[5-(3-Cyano-phenyl)-8-methoxy-[1,2,4]triazolo[1,5-a]pyridin-2-yl]-cyclopropanecarboxylic acid (pyridin-3-ylmethyl)-amide], the IC50 is below 0.5 µM.

In the case of `COc1ccc(-c2cccc(C#N)c2)n2nc(C3(C(=O)N4CCOCC4)CC3)nc12` [Compound 196, 3-{8-Methoxy-2-[1-(morpholine-4-carbonyl)-cyclopropyl]-[1,2,4]triazolo-[1,5-a]pyridin-5-yl}-benzonitrile], the IC50 fell in the range of 0.5 to 1 µM.
